Data published in the NIST ThermoML archive (doi:10.1021/je030106k).
± gives the expanded uncertainty stated by the source.

Conditions: Liquid

SMILES | vapor or sublimation pressure (273.15 K) [kPa] | vapor or sublimation pressure (283.15 K) [kPa] | vapor or sublimation pressure (293.15 K) [kPa] | vapor or sublimation pressure (303.15 K) [kPa]
CCC [propane] | 475 ± 1.8 | 637.8 ± 2.2 | 836 ± 2.6 | 1078.4 ± 3.2
CC(C)C [2-methylpropane] | 157.2 ± 1.6 | 221.8 ± 1.8 | 303.4 ± 2.1 | 405.2 ± 2.6
